Test results taken from patent US7652143B2, “Cyclic ureas used as inhibitors of metalloproteases” (sanofi-aventis Deutschland GmbH, priority 2004, dated 2010).
Where a name gives a salt, the structure may show the parent alone. Read-outs that look alike come from different tables or passages of the source.

Columns and labels:
human ADAMTS-4 protease = biological target: T1, human ADAMTS-4 protease (Homo sapiens, UniProt O75173); assay: Inhibition of ADAMTS-4 activity (rAgg1mut substrate, neo-epitope ELISA); assay type: biochemical; conditions: recombinant human ADAMTS-4, rAgg1mut substrate
T1 sequence (O75173 213-837): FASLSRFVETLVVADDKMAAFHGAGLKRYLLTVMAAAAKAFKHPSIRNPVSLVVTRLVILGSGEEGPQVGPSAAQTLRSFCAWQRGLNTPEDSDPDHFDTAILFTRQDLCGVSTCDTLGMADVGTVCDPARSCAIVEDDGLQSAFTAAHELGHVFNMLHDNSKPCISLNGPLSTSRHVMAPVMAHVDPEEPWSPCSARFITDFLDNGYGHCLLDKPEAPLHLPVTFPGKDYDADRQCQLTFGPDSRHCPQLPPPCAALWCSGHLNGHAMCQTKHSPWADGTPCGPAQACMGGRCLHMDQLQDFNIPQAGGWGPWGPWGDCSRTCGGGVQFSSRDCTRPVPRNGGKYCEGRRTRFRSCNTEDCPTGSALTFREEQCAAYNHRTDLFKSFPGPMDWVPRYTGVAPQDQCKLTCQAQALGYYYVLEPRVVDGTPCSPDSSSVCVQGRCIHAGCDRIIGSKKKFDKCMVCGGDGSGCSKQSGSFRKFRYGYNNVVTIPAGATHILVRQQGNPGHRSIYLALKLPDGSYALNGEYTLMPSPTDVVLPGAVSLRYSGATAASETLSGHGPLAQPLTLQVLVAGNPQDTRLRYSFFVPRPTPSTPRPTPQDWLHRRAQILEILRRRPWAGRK

MMP13 = biological target: T2, MMP13 (Homo sapiens, UniProt P45452); assay: Inhibition of MMP 13 activity (fluorimetric peptide substrate cleavage); assay type: biochemical; conditions: recombinant enzyme, APMA activation, pH 7.5 or pH 6.5, fluorimeter
T2 construct: purchased Biotrend, Roche, Boehringer Mannheim

[1] = tested on: primary bovine chondrocytes; assay: Inhibition of proteoglycan liberation from IL1α-stimulated primary bovine chondrocyte cultures; assay type: cell-based; conditions: Bos taurus, alginate culture, 5 ng/ml human IL1α, 16 hours, dimethylmethylene blue dye test
Experimental: The proteoglycan degradation was determined using primary bovine chondrocytes which were isolated from the cartilage of the metacarpophalangeal joint of cattle about 6 months old and cultured in an alginate matrix at 37° C. and 5% CO2 for 3 weeks. Stimulation of ˜160 000 cells with 5 ng/ml human IL1α was followed after 16 hours by determination of the liberated amount of proteoglycan by means of a commercially available dimethylmethylene blue dye test system (Biocolor Ltd.).

[2] = biological target: T3, TNFα-converting enzyme (TACE) (Homo sapiens, UniProt P78536); assay: Inhibition of TACE activity (fluorimetric peptide substrate cleavage); assay type: biochemical
T3 construct: purchased R&D Systems
Experimental: The activity of the cyclic urea derivatives of the invention was tested in various in vitro assay systems for inhibitory activity on the proteases ADAMTS-4 and TNFα-converting enzyme (TACE) and on matrix-degrading metalloproteases (MMP13).
The activity in relation to TACE was measured using a commercially available, recombinantly prepared TACE protease (R&D Systems) and the substrate MCA-ProLeuAlaGlnAlaVal-Dpa-ArgSerSerSerArg-NH2 (Bachem).

[3] = recombinant TACE (R&D Systems), MCA peptide substrate, fluorimeter, read-out: Inhibition of TACE activity (IC50)

T3 sequence (P78536 215-824): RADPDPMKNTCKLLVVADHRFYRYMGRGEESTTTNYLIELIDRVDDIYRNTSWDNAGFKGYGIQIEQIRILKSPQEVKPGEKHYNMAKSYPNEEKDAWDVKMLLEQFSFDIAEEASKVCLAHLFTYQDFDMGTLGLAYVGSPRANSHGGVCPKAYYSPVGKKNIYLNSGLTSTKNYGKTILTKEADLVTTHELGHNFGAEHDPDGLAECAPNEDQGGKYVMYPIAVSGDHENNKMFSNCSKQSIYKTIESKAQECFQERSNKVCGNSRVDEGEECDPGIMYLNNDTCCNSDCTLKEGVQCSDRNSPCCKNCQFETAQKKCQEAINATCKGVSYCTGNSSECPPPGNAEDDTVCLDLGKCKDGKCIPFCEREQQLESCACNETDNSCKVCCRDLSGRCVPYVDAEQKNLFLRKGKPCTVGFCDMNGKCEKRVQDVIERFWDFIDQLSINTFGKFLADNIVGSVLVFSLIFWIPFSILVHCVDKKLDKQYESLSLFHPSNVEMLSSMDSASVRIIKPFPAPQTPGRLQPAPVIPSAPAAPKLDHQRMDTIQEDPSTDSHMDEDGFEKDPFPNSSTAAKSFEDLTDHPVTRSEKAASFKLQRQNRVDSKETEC

Row | Compound | IC50 (human ADAMTS-4 protease) | IC50 (MMP13) | IC50 [1] | IC50 [2, 3] | IC50 [2]
1 | 2-(3-Biphenyl-4-ylmethyl-2-oxoimidazolidin-1-yl)-N-hydroxy-3-methylbutyramide [Example 6] | 9.06 µM | – | – | – | –
2 | CC(C)C(C(=O)NO)N1CCN(Cc2ccc(OCc3ccccc3)cc2)C1=O (stereo not drawn) [Example 1, 2-(3-(4-Benzyloxybenzyl)-2-oxoimidazolidin-1-yl)-N-hydroxy-3-methylbutyramide] | 2.1 µM | 5 µM | > 50 µM | 2.47 µM | –
3 | CC(C)C(C(=O)NO)N1CCN(c2ccc(OCc3ccccc3)cc2)C1=O (stereo not drawn) [Example 2, 2-(3-(4-Benzyloxyphenyl)-2-oxoimidazolidin-1-yl)-N-hydroxy-3-methylbutyramide] | 55 µM | – | – | – | –
4 | CC(C)C(C(=O)NO)N1CCN(Cc2cccc(OCc3ccccc3)c2)C1=O (stereo not drawn) [Example 3, 2-(3-(3-Benzyloxybenzyl)-2-oxoimidazolidin-1-yl)-N-hydroxy-3-methylbutyramide] | – | – | – | 2 µM | –
5 | CC(C)C(C(=O)NO)N1CCN(Cc2ccc(Oc3ccccc3)cc2)C1=O (stereo not drawn) [Example 4, N-Hydroxy-3-methyl-2-(2-oxo-3-(4-phenoxybenzyl)imidazolidin-1-yl)-butyramide] | 1.33 µM | 0.08 µM | – | 5 µM | –
6 | CC(C)C(C(=O)NO)N1CCN(Cc2ccc(OCc3ccccc3)nc2)C1=O (stereo not drawn) [Example 5, 2-(3-(6-Benzyloxypyridin-3-ylmethyl)-2-oxoimidazolidin-1-yl)-N-hydroxy-3-methylbutyramide] | 10 µM | – | – | – | –
7 | COc1ccc(C2CN(Cc3ccccc3)C(=O)N2C(C(=O)NO)C(C)C)cc1 (stereo not drawn) [Example 7, 2-(3-Benzyl-5-(4-methoxyphenyl)-2-oxoimidazolidin-1-yl)-N-hydroxy-3-methylbutyramide] | – | 0.01 µM | – | – | 9 µM
8 | CC(C)C(C(=O)NO)N1CCN(Cc2cccc(O)c2)C1=O (stereo not drawn) [Example 9, N-Hydroxy-2-(3-(3-hydroxybenzyl)-2-oxoimidazolidin-1-yl)-3-methylbutyramide] | 72.4 µM | – | – | 3.04 µM | –
9 | CC(C)C(C(=O)NO)N1CCN(Cc2ccc(OCc3ccncc3)cc2)C1=O (stereo not drawn) [Example 10, N-Hydroxy-3-methyl-2-{2-oxo-3-(4-(pyridin-4-ylmethoxy)benzyl)imidazolidin-1-yl}-butyramide; compound with TFA] | 0.9 µM | 4 µM | > 50 µM | – | 1.14 µM
10 | CC(C)C(C(=O)NO)N1CCN(Cc2ccc(OCc3cccnc3)cc2)C1=O (stereo not drawn) [Example 11, N-Hydroxy-3-methyl-2-[2-oxo-3-(4-(pyridin-3-ylmethoxy)benzyl)imidazolidin-1-yl]-butyramide with TFA] | 7.8 µM | 5.4 µM | – | 3 µM | –
11 | CC(C)C(C(=O)NO)N1CCN(Cc2ccc(OCc3ccccn3)cc2)C1=O (stereo not drawn) [Example 12, N-Hydroxy-3-methyl-2-{2-oxo-3-(4-(pyridin-2-ylmethoxy)benzyl)imidazolidin-1-yl}butyramide with TFA] | 7 µM | – | – | 8 µM | –
12 | CC#CCOc1ccc(CN2CCN(C(C(=O)NO)C(C)C)C2=O)cc1 (stereo not drawn) [Example 13, 2-(3-(4-But-2-ynyloxybenzyl)-2-oxoimidazolidin-1-yl)-N-hydroxy-3-methylbutyramide] | – | – | – | 5 µM | –
13 | Cc1cc(COc2ccc(CN3CCN(C(C(=O)NO)C(C)C)C3=O)cc2)c2ccccc2n1 (stereo not drawn) [Example 14, N-Hydroxy-3-methyl-2-{3-(4-(2-methylquinolin-4-ylmethoxy)benzyl)-2-oxoimidazolidin-1-yl}butyramide with TFA] | 1.14 µM | – | 12.9 µM | 0.01 µM | –
14 | COc1ccc(CC2CN(Cc3ccccc3)C(=O)N2C(C(=O)NO)C(C)C)cc1 (stereo not drawn) [Example 15, 2-(3-Benzyl-5-(4-methoxybenzyl)-2-oxoimidazolidin-1-yl)-N-hydroxy-3-methylbutyramide] | 17 µM | 0.4 µM | – | 8 µM | –
15 | COc1ccc(CC2CN(Cc3ccc(OCc4ccccc4)cc3)C(=O)N2C(C(=O)NO)C(C)C)cc1 (stereo not drawn) [Example 16, 2-(3-(4-Benzyloxybenzyl)-5-(4-methoxybenzyl)-2-oxoimidazolidin-1-yl)-N-hydroxy-3-methylbutyramide] | 1.39 µM | 0.42 µM | 25.5 µM | 3.08 µM | –
16 | COc1ccc(CC2CN(C)C(=O)N2C(C(=O)NO)C(C)C)cc1 (stereo not drawn) [Example 17, N-Hydroxy-2-(5-(4-methoxybenzyl)-3-methyl-2-oxoimidazolidin-1-yl)-3-methylbutyramide] | – | 3.17 µM | – | – | –
17 | CC(C)C(C(=O)NO)N1C(=O)N(Cc2ccc(OCc3ccccc3)cc2)CC1Cc1ccc2c(c1)OCO2 (stereo not drawn) [Example 18, 2-(5-Benzo(1,3)dioxol-5-ylmethyl-3-(4-benzyloxybenzyl)-2-oxoimidazolidin-1-yl)-N-hydroxy-3-methylbutyramide] | 3.16 µM | 0.6 µM | – | 1.9 µM | –
18 | CC(C)C(C(=O)NO)N1C(=O)N(Cc2ccccc2)CC1Cc1ccc2c(c1)OCO2 (stereo not drawn) [Example 19, 2-(5-Benzo(1,3)dioxol-5-ylmethyl-3-benzyl-2-oxoimidazolidin-1-yl)-N-hydroxy-3-methylbutyramide] | – | 0.34 µM | – | 9.29 µM | –
19 | COc1ccc(CC2CN(Cc3ccc(OCc4ccccc4)cc3)S(=O)(=O)N2C(C(=O)NO)C(C)C)cc1 (stereo not drawn) [Example 20, 2-(5-(4-Benzyloxybenzyl)-3-(4-methoxybenzyl)-1,1-dioxo-(1,2,5)thiadiazolidin-2-yl)-N-hydroxy-3-methylbutyramide] | – | 3.58 µM | – | – | –
